Laboratory results as given in patent US20200093801A1, “NEW METHODS FOR THE TREATMENT OF MULTIPLE SCLEROSIS” (Novartis AG, priority 2017, published 2020).

Test system: Cuprizone-Induced Demyelination in Mice
Assay: Cuprizone-induced demyelination in mice at 20 mg/kg and 60 mg/kg, MRI
Format: in vivo, Mice (C57BL/6J)
Description: Studies described below were approved by the Swiss Cantonal Veterinary Authority of Basel City, Switzerland, under the license number 2711. Mice (C57BL/6J) were commercially purchased from Charles River Laboratories, Germany or obtained from Novartis Pharma AG breeding colonies (8-9 weeks old, females). All the animals were allowed to adapt for 7 days prior the start of the experiment and housed in IVC racks (max. 4 mice/XJ Type cage). The animals were given access to food and water ad libitum. Animals were treated with cuprizone for 5 weeks. Cuprizone (Bis(cyclohexanone)oxaldihydrazone, Sigma-Aldrich) was mixed into rodent food pellets (0.2% w/w) by Provimi Kliba AG, Switzerland. Therapeutic treatment of animals after cuprizone was performed for 2 weeks on normal food with 20 and 60 mg/kg of BLZ945, qd, p.o. 10 ml/kg. BLZ945 was prepared in vehicle consisting of 0.5% methylcellulose in water and 0.1% Tween-80. Before killing 3 h after last BLZ945 dosing animals were perfused transcardially by phosphate-buffered saline (PBS), brains isolated and fixed in 4% paraformaldehyde (PFA) for 48 h at 4° C.
Measurements were performed with a Biospec 70/30 spectrometer (Bruker Medical Systems, Ettlingen, Germany) operating at 7 T. The operational software of the scanner was Paravision 5.1 (Bruker). Images were acquired from anesthetized, spontaneously breathing animals using a mouse brain circularly polarized coil (Bruker, Model 1P T20063V3; internal diameter 23 mm) for radiofrequency excitation and detection; neither cardiac nor respiratory triggering was applied. Following a short period of introduction in a box, animals were maintained in anesthesia with 1.5% isoflurane (Abbott, Cham, Switzerland) in oxygen, administered via a nose cone. During MRI signal acquisitions, animals were placed in prone position in a cradle made of Plexiglas, the body temperature was kept at 37±1° C. using a heating pad, and the respiration was monitored.
A T2-weighted, two-dimensional multislice RARE (Rapid Acquisition with Relaxation Enhancement) sequence (Hennig et al., 1986) was used for determining the anatomical orientation and for evaluating signal intensities. This was followed by a two-dimensional multislice gradient-recalled FLASH (Fast Low-Angle Shot) acquisition (Haase et al., 1986) for assessment of MTR. As both sequences had the same anatomical parameters, the choice of the regions-of-interest for evaluations was performed on the RARE images and then transferred to the FLASH images. The parameters of the acquisitions were the following: (a) RARE sequence: effective echo time 80 ms, repetition time 3280 ms, RARE factor 16, 12 averages, field of view 20×18 mm^2, matrix size 213×192, pixel size 0.094×0.094 mm^2, slice thickness 0.5 mm, 15 adjacent slices. Hermite pulses of duration/bandwidth 1 ms/5400 Hz and 0.64 ms/5344 Hz were used for radiofrequency excitation and refocusing, respectively. Fat suppression was achieved by a gauss512 pulse of 2.61 ms/1051 Hz duration/bandwidth followed by a 2-ms-long gradient spoiler. The total acquisition time was of 7 min 52.3 s; (b) FLASH sequence: echo time 2.8 ms, repetition time 252.8 ms, 4 averages, field of view 20×18 mm^2, matrix size 213×192, pixel size 0.094×0.094 mm^2, slice thickness 0.5 mm, 15 adjacent slices. A hermite pulse of 0.9 ms/6000 Hz duration/bandwidth and flipangle 30° was used for radiofrequency excitation. MTR contrast was introduced by a gauss pulse of 15 ms/182.7 Hz duration/bandwidth applied with a radiofrequency peak amplitude of 7.5 μT and an irradiation offset of 2500 Hz. The acquisition was then repeated with the same parameters but without the introduction of the MTR contrast. MTR was then computed using the formula MTR=(S0−SMTR)/S0, where S0 and SMTR represent respectively the signal intensities in the FLASH acquisitions without and with the introduction of the MTR contrast. The total acquisition time for both data sets was of 6 min 31.6 seconds.

[1] = 60 mg/kg p.o. qd, therapeutic mode after 5 weeks cuprizone
[2] = 20 and 60 mg/kg p.o. qd, 2-week therapeutic treatment after 5 weeks 0.2% cuprizone, FIG. 9 legend

## CNC(=O)c1cc(Oc2ccc3nc(N[C@@H]4CCCC[C@H]4O)sc3c2)ccn1 [BLZ945, 4-(2-((1R,2R)-2-hydroxycyclohexylamino)benzothiazol-6-yloxy)-N-methylpicolinamide]
[1]
  Remyelination by MRI, corpus callosum/external capsule: significantly enhanced remyelination
  Remyelination by MRI, cortex: significantly enhanced remyelination
  Remyelination by MRI, striatum: only a trend
[2]
  MRI contrast in corpus callosum: not corpus callosum
  MRI contrast in cortex: reduces MRI contrast
  MRI contrast in striatum: reduces MRI contrast
Lower doses (20 and 60 mg/kg), short-term treatment for only 1 week, 5-week cuprizone model
  Remyelination as detected by MRI: beneficial effects on remyelination
